Columns and labels:
Format in all cases: cell-based
monocytes in WB [1] = assay: IL-6 secretion in citrated human whole blood (screening for inflammatory and anti-inflammatory potential); conditions: for LPS induced IL-6 production, variant compared to the unsubstituted peptide: in the presence of LPS, FIG. 7; for PGN induced IL-6 production, variant compared to the unsubstituted peptide: FIG. 8; for effect on LPS induced IL-6 secretion: 100 ng/ml LPS, FIG. 2; for effect on PCW induced IL-6 secretion: PCW 50 μg/ml from Staphylococcus aureus, FIG. 4; for IL-6 secretion in the absence of bacterial components: no bacterial component, peptide 0.09, 0.18, 0.36 and 0.71 mg/ml blood, FIG. 1
Excerpt: Human whole blood (WB) contains besides red cells, platelets and plasma the white blood cells including the neutrophils and monocytes. Neutrophils and monocytes have receptors for bacterial products such as LPS, PGN and LTA. The bacterial products react directly or via specific binding proteins to receptors on the monocytes thereby stimulating them to secrete and release inflammatory cytokines comprising, but not limited to IL-1, IL-6, and TNF-α.
In the example to be described LPS from the E. coli is used to stimulate the monocytes in WB (anti-coagulated by use of citrate) and the activity is measured by subsequently quantifying IL-6 in plasma separated from WB. The activity of HBP, HBP derived peptides and analogues hereof are evaluated by their ability to: • 1. increase IL-6 secretion in absence of bacterial products • 2. increase IL-6 secretion in presence of bacterial products • 3. decrease IL-6 secretion in presence of bacterial products • 4. inhibit amplification of cytokine secretion induced by intact HBP
All operations must be carried out in LAF cabinet by observance of stringent aseptic techniques. All test tubes, pipette tips etc. must be pyrogen-free. Buffers must be prepared by use of sterile, […], preferably water for injection. Use 0.1% pyrogen-free BSA/PBS for all dilutions.
Add 20 μl of HBP derived peptide (in concentrations from 25 to 2500 μM) to 100 μl freshly drawn (less than 4 hours old) citrate whole blood from a healthy human volunteer. Add 20 μl bacterial component (LPS, LTA or PGN) in concentrations from 5 to 5000 ng/ml, preferably 50 to 500 ng/ml. Mix well and incubate for 16-18 hours in an atmosphere of 5% carbon dioxide and at least 95% relative humidity. At the end of the incubation add at least 5 volumes (700 μl) 0.1% BSA/PBS. Mix well. Centrifuge 10 min. at 10.000 g. Aspirate 500 μl supernatant. Determine the level of IL-6 by a specific human immune assay for human IL-6 with sensitivity of at least 3 pg/ml, e.g. Human IL-6 Kit from RnD Systems (cat. no. D 6050).
Negative controls: 100 μl WB plus 40 μl 0.1% BSA/PBS. Positive control: 100 μl WB plus 20 μl LPS (same concentration as used for testing the peptide) and 20 μl 0.1% BSA/PBS.
The human (h20-44) and porcine (p20-44) peptides were synthesized and tested in the screening assay described in Example 1. The following parameters were examined: (a) abililty to induce inflammation on their own (i.e. in the absence of any bacterial component), (b) ability to amplify or inhibit inflammation induced by a bacterial component, such as LPS from the Gram negative bacteria E. coli and PGN or Purified Cell Wall (PCW) from a Gram positive bacteria. As measure for immune stimulation secretion of the release of IL-6 in citrated whole blood was used. The peptides were tested in the concentrations 0.09, 0.18, 0.36 and 0.71 mg/ml blood. […]

monocytes in WB [2] = assay: as above; conditions: 250 μg/ml PGN from S. aureus
Human Neutrophils (PMNs) = assay: Apoptosis of isolated human neutrophils, TUNEL assay with flow cytometry; conditions: 25 μg HBP per ml sample; 24 h culture; control about 70%
Procedure: The screening for anti-apoptotic peptides is carried out essentially as described by Shrotri M S. et al., 2000.
Peripheral blood from normal volunteers was collected and PMNs were separated by density gradient using Ficoll-Hypaque (Sigma Chemical Co.). PMNs obtained were divided into 1-ml samples with […] and were treated and analyzed as per the protocols described below.
Cell pellets were obtained by centrifugation at 300 g and fixed with 1% paraformaldehyde for 15 min at 4° C. Cells were washed twice and permeabilized with 70% ice-cold ethanol and stored at […]. Cells samples were washed twice and stained by the terminal dUTP nick-end labeling (TUNEL) assay using the APO-BRDU kit (Phoenix Flow Systems, San Diego, Calif.), following the manufacturer's instructions. Briefly, in this assay, the enzyme terminal deoxynucleotidyl transferase (TdT) catalyzes the addition of nucleotides to DNA strand breaks in the apoptotic cells, which are subsequently labeled with fluorescein isothiocyanate (FITC)-conjugated antinucleotide antibodies. The fluorescent cells are the apoptotic cells that are then identified or assessed using the flow cytometer (EPICS Elite, Beckman-Coulter, Hialeah, Fla.). These apoptotic cells were also visually confirmed by confocal microscopy (Meridian Instruments Inc., Okemos, Mich.).
Time zero group. […]

[3] = PGN 50 μg/ml from Staphylococcus aureus, peptide 0.09-0.71 mg/ml blood, FIG. 3

KQGRHFCGGALIHARFVMTAASCFR (Peptide fragment amino acid residues 20-44 of hHBP with mutations N20K,Q44R) [hHBP 20-44 with both N- and C-terminal residues substituted with the corresponding porcine residues]
LPS induced IL-6 production, variant compared to the unsubstituted peptide (monocytes in WB [1]): nearly non-stimulating
PGN induced IL-6 production, variant compared to the unsubstituted peptide (monocytes in WB [1]; in the presence of PGN): inhibitory

KQGRPFCAGALVHPRFVLTAASCFQ (Peptide fragment amino acid residues 20-44 of pHBP with mutation R44Q) [pHBP 20-44 with C-terminal amino acid residue replaced with the human C-terminal residue]
LPS induced IL-6 production, variant compared to the unsubstituted peptide (monocytes in WB [1]): the same pattern was observed
PGN induced IL-6 production, variant compared to the unsubstituted peptide (monocytes in WB [1]; in the presence of PGN): the same pattern was observed

hHBP 20-44 acetylated at the N-terminal amino group and amidated at the C-terminal carboxyl group: hHBP 20-44 acetylated at the N-terminal amino group and amidated at the C-terminal carboxyl group (Ac-NQGRHFCGGALIHARFVMTAASCFQ-NH2; cysteine pairing not given here; UniProt P20160 46-70, looked up, fragment)
fold stimulation of the PGN mediated IL-6 production (monocytes in WB [2]; FIG. 5 compared to FIG. 2): more than ten fold stimulation
effect on PGN induced IL-6 secretion (monocytes in WB [2]; normalized to PGN alone, FIG. 5): stimulated the IL-6 secretion in a dose dependant way

KQGRPFCAGALVHPQFVLTAASCFR (Peptide fragment amino acid residues 20-44 of pHBP with mutation R34Q) [R34Q pHBP 20-44, substitution of arginine to glutamine in position 34 of pHBP 20-44]
effect on PGN induced IL-6 secretion (monocytes in WB [1]; in the presence of PGN, FIG. 6): completely abolished the inhibitory effect

NQGRHFCGGALIHARFVMTAASCFQ [human HBP 20-44]
sum of the IL-6 secretion induced by LPS and peptide individually (monocytes in WB [1]; 100 ng/ml LPS alone plus 0.71 mg/ml peptide alone): 14,178 pg/ml
IL-6 secretion, peptide and LPS together (monocytes in WB [1]; 100 ng/ml LPS plus 0.71 mg/ml peptide): 12,130 pg/ml
effect on LPS induced IL-6 secretion (monocytes in WB [1]; 0.71 mg/ml peptide): increased IL-6 secretion significantly
effect on LPS induced IL-6 secretion (monocytes in WB [1]; up to 0.36 mg/ml peptide): did not significantly increase
effect on PCW induced IL-6 secretion (monocytes in WB [1]; peptide 0.09-0.71 mg/ml blood): increased IL-6 secretion in dose-dependent way
effect on PGN induced IL-6 secretion (monocytes in WB [1]; [3]): increased IL-6 secretion in dose-dependent way
IL-6 secretion in the absence of bacterial components (monocytes in WB [1]): significant and dose-dependent increase

NQGRPFCAGALVHPRFVLTAASCFR (Peptide fragment amino acid residues 20-44 of pHBP with mutation K20N) [pHBP 20-44 whose N-terminal amino acid residue was substituted with the human N-terminal residue]
LPS induced IL-6 production, variant compared to the unsubstituted peptide (monocytes in WB [1]): less inhibitory
PGN induced IL-6 production, variant compared to the unsubstituted peptide (monocytes in WB [1]; in the presence of PGN): less inhibitory

KQGRPFCAGALVHPRFVLTAASCFR (Peptide fragment amino acid residues 20-44 of pHBP) [porcine HBP 20-44]
effect on LPS induced IL-6 secretion (monocytes in WB [1]; peptide 0.09-0.71 mg/ml blood): significantly and dose-dependently inhibited
effect on PCW induced IL-6 secretion (monocytes in WB [1]; peptide 0.09-0.71 mg/ml blood): significantly and dose-dependently inhibited
effect on PGN induced IL-6 secretion (monocytes in WB [1]; [3]): significantly and dose-dependently inhibited
IL-6 secretion in the absence of bacterial components (monocytes in WB [1]): no significant or dose-dependent effect

pHBP 20-44 acetylated and amidated at the N- and C-terminal amino acids: pHBP 20-44 acetylated and amidated at the N- and C-terminal amino acids, respectively (Ac-KQGRPFCAGALVHPRFVLTAASCFR-NH2; cysteine pairing not given here; UniProt P80015 46-70, looked up, fragment)
LPS induced IL-6 production, variant compared to the unsubstituted peptide (monocytes in WB [1]): more inhibitory
PGN induced IL-6 production, variant compared to the unsubstituted peptide (monocytes in WB [1]; in the presence of PGN): more inhibitory

B1: HBP: heparin-binding protein (HBP), isolated from azurophile granules of human PMNs; also termed CAP37, azurocidin (protein, listed as Homo sapiens)
chain: IVGGRKARPRQFPFLASIQNQGRHFCGGALIHARFVMTAASCFQSQNPGVSTVVLGAYDLRRRERQSRQTFSISSMSENGYDPQQNLNDLMLLQLDREANLTSSVTILPLPLQNATVEAGTRCQVAGWGSQRSGGRLSRFPRFVNVTVTPEDQCRPNNVCTGVLTRRGGICNGDGGTPLVCEGLAHGVASFSLGPCGRGPDFFTRVALFRDWIDGVLNNPGPGPA
amplification of cytokine secretion induced by bacterial products (monocytes in WB [1]): at least three-fold amplification
cytokine secretion by HBP in itself (monocytes in WB [1]; no bacterial product): no measurable effect
apoptosis (Human Neutrophils (PMNs)): ~45%

Reference: patent US20060173162A1, “Bactericidak anti-apoptotic, pro-inflammatory and anti-inflammatory peptides of heparin-binding protein (hbp)” (priority 2002, published 2006)
